Read-outs that look alike come from different tables or passages of the source.

Where the note is “from C=CCOC1(C)CCN(c2c([C@H](OC(C)(C)C)C(=O)OCC)c(C)nc3cc(COCc4ccc(F)cc4CC=C)nn23)CC1, rcm bond, 18-membered ring, Grubbs II (1 eq), then NaBH4/MeOH, DCM, 1.6 mM, 40.0 °C, 2.0 h, 2 steps”, `CCOC(=O)[C@@H](OC(C)(C)C)c1c(C)nc2cc3nn2c1N1CCC(C)(CC1)OCC=CCc1cc(F)ccc1COC3` showed a ring closure, isolated yield of 44.7%. As to `CCOC(=O)[C@@H](OC(C)(C)C)c1c(C)nc2cc3nn2c1N1CCC(C)(CC1)OCC=CCc1cc(F)c(F)cc1COC3`, for the setting “from C=CCOC1(C)CCN(c2c([C@H](OC(C)(C)C)C(=O)OCC)c(C)nc3cc(COCc4cc(F)c(F)cc4CC=C)nn23)CC1, rcm bond, 18-membered ring, Grubbs II (0.1 eq), then NaBH4/MeOH, DCM, 1.56 mM, 40.0 °C, 2.0 h, 2 steps”, the ring closure, isolated yield was 62.5%.

As for `CCOC(=O)[C@@H](OC(C)(C)C)c1c(C)nc2cc3nn2c1N1CCC(C)(CC1)OCC=Cc1ccccc1CC=C3`, under “from C=CCOC1(C)CCN(c2c([C@H](OC(C)(C)C)C(=O)OCC)c(C)nc3cc(C=CCc4ccccc4Br)nn23)CC1, cc_pd bond, 17-membered ring, Pd2(dba)3/PPh3/Et3N, acetonitrile, 35.2 mM, 120.0 °C, 20.0 h”, the ring closure, isolated yield was 51.6%.

In the case of `COC(=O)[C@@H](OC(C)(C)C)c1c(C)nc2cc3nn2c1N1CCC(C)(CC1)OCC=Cc1ccccc1COC3`, the ring closure, isolated yield (from C=CCOC1(C)CCN(c2c([C@H](OC(C)(C)C)C(=O)OC)c(C)nc3cc(COCc4ccccc4Br)nn23)CC1, cc_pd bond, 17-membered ring, Pd2(dba)3/PPh3/Et3N, acetonitrile, 40.0 mM, 120.0 °C, 18.0 h) is 78%. Under “from C=CCOC1(C)CCN(c2c([C@H](OC(C)(C)C)C(=O)OCC)c(C)nc3cc(COCc4ccccc4CC=C)nn23)CC1, rcm bond, 18-membered ring, Hoveyda-Grubbs II (20 mol%)/CuI, 1,2-dichloroethane, 1.4 mM, 70.0 °C, 2.0 h”, `CCOC(=O)[C@@H](OC(C)(C)C)c1c(C)nc2cc3nn2c1N1CCC(C)(CC1)OCC=CCc1ccccc1COC3` displayed a ring closure, isolated yield of 76%.

In turn, `CCOC(=O)[C@@H](OC(C)(C)C)c1c(C)nc2cc3nn2c1N1CCC(C)(CC1)OCC=CCCc1cccc(c1)COC3` showed a ring closure, isolated yield (from C=CCCc1cccc(COCc2cc3nc(C)c([C@H](OC(C)(C)C)C(=O)OCC)c(N4CCC(C)(OCC=C)CC4)n3n2)c1, rcm bond, 20-membered ring, Grubbs II, DCM, 1.62 mM, 2.0 h, 2 steps) of 41.8%.

The values are drawn from US9273067B2, “Pyrazolopyrimidine macrocycles as inhibitors of human immunodeficiency virus replication” (BRISTOL-MYERS SQUIBB COMPANY, priority 2014, dated 2016).
